Key:
Test in all cases: relative viability (nuclei count vs DMSO), 5 days (fraction); higher = more cells survive
Lapatinib + OSI-027 = compound: CS(=O)(=O)CCNCc1ccc(-c2ccc3ncnc(Nc4ccc(OCc5cccc(F)c5)c(Cl)c4)c3c2)o1 [Lapatinib] + COc1cccc2cc(-c3nc([C@H]4CC[C@H](C(=O)O)CC4)n4ncnc(N)c34)[nH]c12 [OSI-027] (partner 0.5 µM)
Method in brief: (§1)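 Lung cancer cell lines, seeded in 1536-well plates, were treated the following day by pin tool with a single drug or with five library-drug doses (not always all listed) in √10 steps on top of a fixed anchor-drug dose. Cells were fixed and nuclei stained in one step after 5 days, and nuclei were counted. Relative viability is the nuclei count for treated wells divided by that for vehicle wells, reported as medians of duplicate plates.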

Lapatinib + Pictilisib = compound: CS(=O)(=O)CCNCc1ccc(-c2ccc3ncnc(Nc4ccc(OCc5cccc(F)c5)c(Cl)c4)c3c2)o1 [Lapatinib] + CS(=O)(=O)N1CCN(Cc2cc3nc(-c4cccc5[nH]ncc45)nc(N4CCOCC4)c3s2)CC1 [Pictilisib] (partner 1 µM)
Method in brief: as §1

Lapatinib + Tozasertib = compound: CS(=O)(=O)CCNCc1ccc(-c2ccc3ncnc(Nc4ccc(OCc5cccc(F)c5)c(Cl)c4)c3c2)o1 [Lapatinib] + Cc1cc(Nc2cc(N3CCN(C)CC3)nc(Sc3ccc(NC(=O)C4CC4)cc3)n2)n[nH]1 [Tozasertib] (partner 0.1 µM)
Method in brief: as §1

Lapatinib + Phenformin = compound: CS(=O)(=O)CCNCc1ccc(-c2ccc3ncnc(Nc4ccc(OCc5cccc(F)c5)c(Cl)c4)c3c2)o1 [Lapatinib] + N=C(N)NC(=N)NCCc1ccccc1 [Phenformin] (partner 250 µM)
Method in brief: as §1

With UMC-11 the relative viability (Lapatinib + OSI-027; first compound 0.02 µM) was 0.461, the relative viability (Lapatinib + OSI-027; first compound 0.06325 µM) was 0.427 and the relative viability (Lapatinib + OSI-027; first compound 0.2 µM) was 0.582. It also gave a relative viability (Lapatinib + OSI-027; first compound 0.6325 µM) of 0.464, a relative viability (Lapatinib + OSI-027; first compound 2 µM) of 0.465 and a relative viability (Lapatinib + Pictilisib; first compound 0.02 µM) of 0.251. For the same cell line, the relative viability (Lapatinib + Pictilisib; first compound 0.06325 µM) was 0.731, the relative viability (Lapatinib + Pictilisib; first compound 0.2 µM) was 0.827 and the relative viability (Lapatinib + Pictilisib; first compound 0.6325 µM) was 0.839. The relative viability (Lapatinib + Pictilisib; first compound 2 µM) was 0.759, the relative viability (Lapatinib + Tozasertib; first compound 0.06325 µM) was 0.211 and the relative viability (Lapatinib + Tozasertib; first compound 0.2 µM) was 0.209. The relative viability (Lapatinib + Tozasertib; first compound 0.6325 µM) was 0.184, the relative viability (Lapatinib + Tozasertib; first compound 2 µM) was 0.211 and the relative viability (Lapatinib + Phenformin; first compound 0.02 µM) was 0.351. For the same cell line, the relative viability (Lapatinib + Phenformin; first compound 0.06325 µM) was 0.306, the relative viability (Lapatinib + Phenformin; first compound 0.2 µM) was 0.297 and the relative viability (Lapatinib + Phenformin; first compound 0.6325 µM) was 0.321. The relative viability (Lapatinib + Phenformin; first compound 2 µM) was 0.298.
